Here are results for one compound from patent publication US20020107228A1, “Topical bisphosphonates for prevention of bone resorption” (Merck & Co., Inc, priority 1996, published 2002).

Test [1] has as its system Wistar rats. The conditions noted are these: topical, 1 mm GELFOAM pellet soaked in 0.025 ml of 20 mg/ml alendronate in saline, in situ at least two hours; sacrifice 21 days after surgery; vs GELFOAM-only control side.
Description: Wistar rats were used in the following experiment. The right side of the mandible was used as the experimental side and the left side was used as the control.
The rats were anesthetized prior to surgery using a mixture of 25 mg/kg body weight of KETALAR (Malgene, Lyon, France) and 42 mg/kg body weight of XYLAZINE (Rampun Bayer, Leverkusen, Germany) intraperitoneally (IP).
A mucoperiosteal flap was made on both the buccal and lingual aspects in the region of premolars and molars on both sides of the mandible, two quadrants per rat. The flap was elevated using a special small periosteal elevator. A 1 mm diameter piece of GELFOAM (Upjohn Co., Kalamazoo, Mich.) which was soaked in 0.025 ml alendronate solution (below) was applied to the alveolar bone on both buccal and lingual aspects on the experimental (right) side and the flap was then readapted immediately in place without sutures.
The alendronate solution was prepared by dissolving 20 mg alendronate in 1 ml saline.
A GELFOAM pellet of 1 mm diameter, identical to the alendronate-soaked pellet, but lacking the alendronate, was applied to the alveolar bone in the control side. The entire procedure lasted about 20-40 seconds. The GELFOAM pellets remained in situ for at least two hours while the anesthesia was effected. The rats were fed a soft diet for 24 hours after surgery to avoid flap displacement. […]
Test [2] has as its system Wistar rats. The conditions noted are these: sacrifice 3 weeks after flap.
Description: 63 Wistar rats were used in this experiment, and were divided into the four groups. Group A: 15 rats received 0.05 mg/kg body weight of alendronate. Group B: 15 rats received 0.25 mg/kg body weight of alendronate. Group C: 15 rats received 0.5 mg/kg body weight of alendronate. Group D was the control group, where 18 rats received saline. The alendronate sodium or saline was administered one week prior to surgery, at the day of surgery before the surgery was performed, and one week following surgery. The drug was administered IV in the dorsal vein of the penis.
In one experiment, one group of rats were anesthetized prior to surgery or alendronate administration using a mixture of 25 mg/kg body weight of KETALAR (Malgene, Lyon France), and 42 mg/kg body weight XYLAZINE (Rampun Bayer, Leverkusen, Germany) intraperitoneally (IP). A portion of these rats also received 25 mg/kg alendronate IP. […] The flap was elevated using a special small periosteal elevator, and readapted immediately in place without sutures. […]
In another set of experiments, alendronate was applied locally at three dose levels using a wet gauze sponge soaked with a solution of 0.15, 0.75, and 1.5 mg/ml on the exposed bone on the experimental side and saline on the exposed bone on the control side for 10 seconds. Since the sponge could absorb 0.1 ml, the maximum calculated amount of drug applied was 0.5 mg/kg body weight. […]
The test system of a further test is alveolar bone resorption. The note with it: Yaffe et al. 1995, cited from earlier work.

On to `NCCCC(O)(P(=O)(O)O)P(=O)(O)O` [alendronate, 4-amino-1-hydroxy-butylidene 1,1,-bisphosphonic acid], for which the “bone resorption (alveolar bone, X-ray microradiography)” value with Wistar rats [1] is “inhibited”. Also, the “alveolar bone resorption (X-ray microradiography)” value with Wistar rats [2] (IV, all doses (0.05, 0.25, 0.5 mg/kg), one week before, day of and one week after surgery) is listed as “reduced”. Also, in the test with Wistar rats [2] (applied locally for 10 seconds on alveolar bone during surgery, wet gauze sponge, 0.15, 0.75 and 1.5 mg/ml), the “effect on reducing bone resorption (alveolar bone, X-ray microradiography)” value is “no noticeable effect”. The “inhibiting bone resorption following surgery” value in the test on alveolar bone resorption (alendronate solutions applied topically) is “not found to be effective”. Moreover, the “amount of alveolar bone resorption following surgery” value in the test with alveolar bone resorption (intravenous administration) is given as “reduce”.
